Source: PubChem BioAssay AID330 (DTP/NCI, 2004)
“And” between values parts separate entries of the source, which are not always exact repeats. Equal entries are not always repeated. Inconclusive results and toxic doses are left out. The calls were made as follows: active = survival T/C of 150% or more; inactive = T/C below 125% in these data.

Test system: P388 leukemia ip, CD2F1 mice, survival T/C
Test: NCI In Vivo Anticancer Drug Screen. Data for tumor model P388 Leukemia (intraperitoneal) in CD2F1 (CDF1) mice
Details: endpoint: median survival time, higher = longer survival
Outline: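 Mice carrying the transplanted tumor received test compound or vehicle. Survival was recorded in each group, and the value is the treated-group measurement divided by that of the vehicle-treated control group.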

[1] = dose: 100.0 mg/kg/injection, schedule: Q04DX002 (ip), vehicle: saline with Tween-80
[2] = dose: 200.0 mg/kg/injection, schedule: Q04DX002 (ip), vehicle: saline with Tween-80
[3] = dose: 50.0 mg/kg/injection, schedule: Q01DX005 (ip), vehicle: Klucel (hydroxypropylcellulose) (HPC)
[4] = dose: 100.0 mg/kg/injection, schedule: Q01DX005 (ip), vehicle: Klucel (hydroxypropylcellulose) (HPC)
[5] = dose: 200.0 mg/kg/injection, schedule: Q01DX005 (ip), vehicle: Klucel (hydroxypropylcellulose) (HPC)
[6] = dose: 100.0 mg/kg/injection, schedule: Q01DX005 (ip), vehicle: saline with Tween-80
[7] = dose: 50.0 mg/kg/injection, schedule: Q01DX009 (ip), vehicle: saline with Tween-80
[8] = dose: 100.0 mg/kg/injection, schedule: Q01DX009 (ip), vehicle: saline with Tween-80
[9] = dose: 100.0 mg/kg/injection, schedule: Q01DX001 (ip), vehicle: saline with Tween-80
[10] = dose: 200.0 mg/kg/injection, schedule: Q01DX001 (ip), vehicle: saline with Tween-80
[11] = dose: 400.0 mg/kg/injection, schedule: Q01DX001 (ip), vehicle: saline with Tween-80
[12] = dose: 100.0 mg/kg/injection, schedule: Q04DX003 (ip), vehicle: saline with Tween-80
[13] = dose: 200.0 mg/kg/injection, schedule: Q04DX003 (ip), vehicle: saline with Tween-80

Measured: T/C

O=C(/C=C/c1ccccc1)Oc1cc([N+](=O)[O-])cc([N+](=O)[O-])c1
inactive: [1] 112 % of control | [2] 105 % of control

O=C1c2ccccc2C(=O)c2cnccc21
inactive: [3] 109 % of control | [4] 106 % of control | [5] 106 % of control

CCOP(=O)(O)OCc1ccccc1.[Ti]
inactive: dose: 50.0 mg/kg/injection, schedule: Q01DX001 (ip), vehicle: Klucel (hydroxypropylcellulose) (HPC) 90 % of control | dose: 100.0 mg/kg/injection, schedule: Q01DX001 (ip), vehicle: Klucel (hydroxypropylcellulose) (HPC) 97 % of control | dose: 200.0 mg/kg/injection, schedule: Q01DX001 (ip), vehicle: Klucel (hydroxypropylcellulose) (HPC) 93 % of control

Cc1cc(N=Nc2ccc(NC(=O)c3ccc([N+](=O)[O-])cc3)cc2C)ccc1N=Nc1ccc2cc(S(=O)(=O)O)cc(S(=O)(=O)O)c2c1
inactive: dose: 12.5 mg/kg/injection, schedule: Q01DX005 (ip), vehicle: saline with Tween-80 102 % of control and 107 % of control and 109 % of control | dose: 25.0 mg/kg/injection, schedule: Q01DX005 (ip), vehicle: saline with Tween-80 109 % of control and 111 % of control and 120 % of control | [6] 111 % of control

Cc1ccc2ccc(N(C)C)cc2n1
inactive: [7] 100 % of control | [8] 107 % of control

CN1C(=O)CC([Se]c2ccccc2)C1=O (stereo not drawn)
inactive: dose: 6.25 mg/kg/injection, schedule: Q04DX003 (ip), vehicle: Klucel (hydroxypropylcellulose) (HPC) 107 % of control and 97 % of control | dose: 12.5 mg/kg/injection, schedule: Q04DX003 (ip), vehicle: Klucel (hydroxypropylcellulose) (HPC) 103 % of control and 104 % of control | dose: 25.0 mg/kg/injection, schedule: Q04DX003 (ip), vehicle: Klucel (hydroxypropylcellulose) (HPC) 99 % of control and 105 % of control | dose: 50.0 mg/kg/injection, schedule: Q04DX003 (ip), vehicle: Klucel (hydroxypropylcellulose) (HPC) 100 % of control | dose: 100.0 mg/kg/injection, schedule: Q04DX003 (ip), vehicle: Klucel (hydroxypropylcellulose) (HPC) 105 % of control

COc1cc(/C=C2\N=C(c3cccc(C)c3)OC2=O)ccc1O
inactive: [7] 91 % of control | [8] 100 % of control | dose: 200.0 mg/kg/injection, schedule: Q01DX009 (ip), vehicle: saline with Tween-80 99 % of control

O=C1CSC(=O)N1c1cccc(C(F)(F)F)c1
inactive: [7] 104 % of control | [8] 97 % of control

Cn1c(=O)c2nc(-c3ccc(Cl)cc3)c(-c3ccc(Cl)cc3)nc2n(C)c1=O
inactive: dose: 50.0 mg/kg/injection, schedule: Q01DX001 (ip), vehicle: saline with Tween-80 102 % of control | [9] 102 % of control | [10] 110 % of control

O=C(O)c1cc2c3ccccc3ncc2c2ccccc12
inactive: [9] 113 % of control | [10] 100 % of control | [11] 100 % of control

Cc1ccc(C)c(C(O)C2CC2)c1 (stereo not drawn)
inactive: [12] 100 % of control | [13] 104 % of control

COc1ccc2cc3n(c(=O)c2c1O)CCc1cc2c(cc1-3)OCO2
inactive: dose: 0.63 mg/kg/injection, schedule: Q01DX009 (ip), vehicle: distilled water + Tween-80 101 % of control | dose: 1.25 mg/kg/injection, schedule: Q01DX009 (ip), vehicle: distilled water + Tween-80 101 % of control | dose: 2.5 mg/kg/injection, schedule: Q01DX009 (ip), vehicle: distilled water + Tween-80 93 % of control | dose: 5.0 mg/kg/injection, schedule: Q01DX009 (ip), vehicle: distilled water + Tween-80 108 % of control | dose: 10.0 mg/kg/injection, schedule: Q01DX009 (ip), vehicle: distilled water + Tween-80 101 % of control | dose: 20.0 mg/kg/injection, schedule: Q01DX009 (ip), vehicle: distilled water + Tween-80 92 % of control

N#Cc1cc([N+](=O)[O-])c(Cl)c([N+](=O)[O-])c1Cl
inactive: dose: 3.13 mg/kg/injection, schedule: Q04DX003 (ip), vehicle: saline with Tween-80 100 % of control | dose: 6.25 mg/kg/injection, schedule: Q04DX003 (ip), vehicle: saline with Tween-80 100 % of control | dose: 12.5 mg/kg/injection, schedule: Q04DX003 (ip), vehicle: saline with Tween-80 100 % of control

CC(=O)NC1=NN(C(C)=O)C(C)(c2ccccc2)S1=O (stereo not drawn)
inactive: dose: 50.0 mg/kg/injection, schedule: Q01DX005 (ip), vehicle: saline with Tween-80 103 % of control | [6] 107 % of control | dose: 200.0 mg/kg/injection, schedule: Q01DX005 (ip), vehicle: saline with Tween-80 101 % of control

CN(C)/[N+]([O-])=N/N1C(=O)c2ccccc2C1=O
inactive: [3] 101 % of control | [4] 105 % of control | [5] 101 % of control

O=C1CN(CCCN2CCOCC2)CC(=O)N2Cc3ccccc3CN12
inactive: dose: 50.0 mg/kg/injection, schedule: Q01DX005 (ip), vehicle: saline 95 % of control | dose: 100.0 mg/kg/injection, schedule: Q01DX005 (ip), vehicle: saline 110 % of control | dose: 200.0 mg/kg/injection, schedule: Q01DX005 (ip), vehicle: saline 108 % of control

CC(C)NNC(=O)c1ccncc1
inactive: dose: 12.5 mg/kg/injection, schedule: Q01DX009 (ip), vehicle: saline 96 % of control | dose: 25.0 mg/kg/injection, schedule: Q01DX009 (ip), vehicle: saline 101 % of control | dose: 50.0 mg/kg/injection, schedule: Q01DX009 (ip), vehicle: saline 103 % of control | dose: 100.0 mg/kg/injection, schedule: Q01DX009 (ip), vehicle: saline 96 % of control | dose: 200.0 mg/kg/injection, schedule: Q01DX009 (ip), vehicle: saline 98 % of control | dose: 400.0 mg/kg/injection, schedule: Q01DX009 (ip), vehicle: saline 64 % of control

CN(C)CC#CCCCS(=O)(=O)c1ccccc1
inactive: dose: 60.0 mg/kg/injection, schedule: Q01DX005 (ip), vehicle: saline 97 % of control | dose: 120.0 mg/kg/injection, schedule: Q01DX005 (ip), vehicle: saline 99 % of control

Nc1cc(N)cc(Cc2ccccc2)c1
inactive: [8] 100 % of control | [12] 100 % of control | [13] 109 % of control | dose: 400.0 mg/kg/injection, schedule: Q04DX003 (ip), vehicle: saline with Tween-80 95 % of control

CCN(CC)CC(=O)Nc1ccc2c(c1)C(=O)c1ccc(NC(=O)CN(CC)CC)cc1C2=O
inactive: [3] 90 % of control | dose: 50.0 mg/kg/injection, schedule: Q01DX005 (ip), vehicle: acid diluted with saline 100 % of control | [4] 93 % of control | dose: 100.0 mg/kg/injection, schedule: Q01DX005 (ip), vehicle: acid diluted with saline 103 % of control | [5] 90 % of control | dose: 200.0 mg/kg/injection, schedule: Q01DX005 (ip), vehicle: acid diluted with saline 106 % of control

CCC(c1ccc(OC)cc1)C(NC(=S)Nc1cccc(C)c1)c1ccc(OC)cc1 (stereo not drawn)
inactive: [9] 90 % of control | [10] 92 % of control | [11] 93 % of control

O=C1CSC(c2cccc(O)c2)N1c1nncs1 (stereo not drawn)
inactive: dose: 60.0 mg/kg/injection, schedule: Q01DX005 (ip), vehicle: saline with Tween-80 114 % of control | dose: 120.0 mg/kg/injection, schedule: Q01DX005 (ip), vehicle: saline with Tween-80 107 % of control | dose: 240.0 mg/kg/injection, schedule: Q01DX005 (ip), vehicle: saline with Tween-80 95 % of control

COc1ccc2ccccc2c1C1=CC(c2ccccc2)C(c2cc(C)n(-c3ccccc3)n2)C(=O)N1 (stereo not drawn)
inactive: [1] 101 % of control | [2] 106 % of control

O=C1NC(O)c2cc(Br)cc(Br)c2O1 (stereo not drawn)
inactive: dose: 12.5 mg/kg/injection, schedule: Q01DX005 (ip), vehicle: Klucel (hydroxypropylcellulose) (HPC) 100 % of control | dose: 25.0 mg/kg/injection, schedule: Q01DX005 (ip), vehicle: Klucel (hydroxypropylcellulose) (HPC) 101 % of control | [3] 103 % of control
